For test [1], the system named is toxigenic C. difficile strain 10465. Put plainly: C. difficile hamster model. The format is in vivo, Golden Syrian hamsters. The procedure:
Golden Syrian hamsters were given a single injection of clindamycin phosphate (10 mg/kg s.c.), and a day later animals were infected by gavage with 10^5 CFU of toxigenic C. difficile strain 10465. A fulminant colitis results in the majority (˜95%) of animals and develops 1 to 2 days after the administration of C. difficile. Untreated, the colitis progresses rapidly and turns into severe colitis, hemorrhagic necrosis of the cecum and death. The compound of Example 1 was administered orally as a suspension at three dosage levels (10 mg/kg, 30 mg/kg and 100 mg/kg; n=10 per group). Vancomycin (50 mg/kg) was used as a control. Animals were treated once daily for 5 days and afterwards maintain under observation for an additional 21 days.
The animals were observed three times daily for morbidity and presence or absence of diarrhoea. The final endpoint of the study was survival. Animals judged to be in a moribund state [extended period of weight loss progressing to an emaciated state, anorexia for 24-48 h, prolonged lethargy (more than 3 days), signs of paralysis, skin erosions or trauma, hunched posture, distended abdomen] were euthanized by a single injection of sodium pentobarbital.

The subject of test [2] is C. difficile strain NC13366. The format is cell-based. The note with it: 1 and 8 μg/mL, day 5 vs day 1, high density stationary phase cultures.
The test system of test [3] is Lactobacillus acidophilus A-1255 DSM 20079. Put plainly: MIC, particular anaerobic bacterial strains. The format is cell-based.
Test [4] concerns Eubacterium limosum A-1259 DSM 20698. Put plainly: MIC, particular anaerobic bacterial strains. The format is cell-based.
Test [5] deals with Lactococcus lactis A-1256 DSM 20069. The test is described as follows: MIC, particular anaerobic bacterial strains. The format is cell-based.
Test [6] deals with Bacteroides fragilis A-992 ATCC 25285. The test is described as follows: MIC, particular anaerobic bacterial strains. The format is cell-based. The following applies: ATCC25285.
In test [7] the test system is Finegoldia magna A-1254 DSM 20470. Put plainly: MIC, particular anaerobic bacterial strains. The format is cell-based.
In test [8] the test system is C. difficile strain NC13366. The format is cell-based. The note with it: treated cultures compared to the untreated control, day 5.
Test [9] has as its system Bacteroides thetaiotaomicron A-990 ATCC 29741. The test is described as follows: microbe, parasite or virus in culture. The format is cell-based. The following applies: ATCC29741.
Setting [10] is: 10 mg/kg orally once daily for 5 days.
[11] abbreviates: 30 mg/kg orally once daily for 5 days.

We go through one compound from patent publication US8124623B2, “5-hydroxymethyl-oxazolidin-2-one-derivatives and their uses as antibacterials” (Actelion Pharmaceuticals Ltd., priority 2006, dated 2012).

The structures appear in SMILES notation. Converted amounts (≈) assume the structure as drawn. Where only a bound is given, the exact number is not on record here.

For `O=C(O)c1cn(C2CC2)c2cc(N3CCC(O)(COc4ccc(N5C[C@H](CO)OC5=O)cc4F)CC3)c(F)cc2c1=O` [Example 1, 1-cyclopropyl-6-fluoro-7-{4-[2-fluoro-4-((R)-5-hydroxymethyl-2-oxo-oxazolidin-3-yl)-phenoxymethyl]-4-hydroxy-piperidin-1-yl}-4-oxo-1,4-dihydro-quinoline-3-carboxylic acid], the “animals surviving the 5 day treatment period” value in test [1] (setting [10]), in test [1] (setting [11]) and in [1] (100 mg/kg orally once daily for 5 days) was “all animals” each time. In addition, the “animals surviving the relapse phase of 21 days after treatment” value in test [1] (setting [10]) is given as 40%. Besides, the “animals surviving the relapse phase of 21 days after treatment without relapse” value in test [1] (setting [11]) was determined as 80%. In addition, the “de novo toxin A production in supernatants” value in [2] was “inhibited de novo toxin A production”. The “less activity than compound of Example 5 of WO 2005/058888 (R1)” value in [3] came out at 8 times; in test [4] it was 4 times; in test [5], 8 times; in [7] it was 4 times. Further, the MIC in [6] and in test [9] was 8 µg/mL (≈ 13.7 µM) in each case. Besides, the “reduction of toxin B activity of culture supernatants” value in test [8] is greater than 90%.
